Active and inactive are the calls of the source. The calls are words filed in the database; no cut-off is given here.
What was measured:
[1] = Anticancer activity against human FADU cells measured after 48 hrs by SRB assay; assay type: functional, cell-based
[2] = Anticancer activity against human DLD1 cells measured after 48 hrs by SRB assay; assay type: functional, cell-based; details: DLD-1, 48 h
[3] = Anticancer activity against human A549 cells measured after 48 hrs by SRB assay; assay type: functional, cell-based; details: A549, 48 h
[4] = Anticancer activity against human ER-positive MCF7 cells measured after 48 hrs by SRB assay; assay type: functional, cell-based; details: MCF7, 48 h
[5] = Cytotoxicity against human THP1 cells by MTT assay; assay type: toxicity, cell-based, THP-1
[6] = Anticancer activity against human DU145 cells measured after 48 hrs by SRB assay; assay type: functional, cell-based; details: DU-145, 48 h
[7] = Inhibition of tubulin depolymerization (unknown origin) measured up to 60 mins; design: species or system Homo sapiens
[8] = Cell cycle arrest in human ER-positive MCF7 cells assessed as accumulation at G2M phase at 7.2 and 14.93 uM by propidium iodide staining based flow cytometry relative to vehicle control; assay type: functional; details: TDE = time-dependent effect
[9] = Cell cycle arrest in human ER-positive MCF7 cells assessed as accumulation at sub-G0 phase at 7.2 and 14.93 uM by propidium iodide staining based flow cytometry relative to vehicle control; assay type: functional; details: TDE = time-dependent effect
MCF7 = assay: Induction of apoptosis in human ER-positive MCF7 cells assessed as PARP cleavage at 2.5 to 10 uM by Western blot analysis; assay type: functional, cell-based; details: TDE = time-dependent effect
[10] = Cell cycle arrest in human ER-positive MCF7 cells assessed as decrease in S-phase cell population at 7.2 and 14.93 uM after 24 hrs by propidium iodide staining based flow cytometry relative to vehicle control; assay type: functional

Row | EC50 [7] [µM] | Structure (SMILES) | IC50 [1] [µM] | IC50 [2] [µM] | IC50 [3] [µM] | IC50 [4] [µM] | CC50 [5] [µM] | IC50 [6] [µM] | Activity [8] | Activity [9] | Activity (MCF7) | Activity [10]
1 |  | CCCCN(C)C(=O)CCCCOc1cc(OC)c(OC)c2oc(-c3ccc(OC)cc3)c(O)c(=O)c12 | 22 | 17.4 | 16.7 | 22.3 | 200 | 10.8 |  |  |  | 
2 |  | COc1ccc(-c2oc3c(OC)c(OC)cc(OCCCCC(=O)N4CCN(C)CC4)c3c(=O)c2O)cc1 | > 40 | > 40 | > 40 | > 40 |  | > 40 |  |  |  | 
3 |  | COc1ccc(-c2oc3c(OC)c(OC)cc(OCCCCCC(=O)NCCc4ccccn4)c3c(=O)c2O)cc1 | > 40 | > 40 | > 40 | > 40 |  | > 40 |  |  |  | 
4 | 5.25 | COc1ccc(-c2oc3c(OC)c(OC)cc(OCCCCCC(=O)N4CCN(C)CC4)c3c(=O)c2O)cc1 | 15.8 | 13.7 | 14.8 | 14.1 | 50 | 13.2 |  |  |  | 
5 |  | COc1ccc(-c2oc3c(OC)c(OC)cc(OCCCC(=O)NCc4ccccn4)c3c(=O)c2O)cc1 | > 40 | > 40 | > 40 | > 40 |  | > 40 |  |  |  | 
6 |  | COc1ccc(-c2oc3c(OC)c(OC)cc(OCCN4CCCC4)c3c(=O)c2O)cc1 | 9.79 | 17.4 | 11.1 | 14.9 | 100 | 7.07 |  |  |  | 
7 |  | COc1ccc(-c2oc3c(OC)c(OC)cc(OCCN(C)C)c3c(=O)c2O)cc1 | 10.9 | 4.44 | 7.17 | 12.9 | 200 | 6.03 |  |  |  | 
8 |  | CC/C(=C(\c1ccccc1)c1ccc(OCCN(C)C)cc1)c1ccccc1 [TAMOXIFEN] | 5.39 | 11.1 | 17.3 | 18.2 |  | 18.1 |  |  |  | 
9 |  | COc1ccc(-c2oc3c(OC)c(OC)cc(OCCCCC(=O)NCc4ccccn4)c3c(=O)c2O)cc1 | > 40 | > 40 | > 40 | > 40 |  | > 40 |  |  |  | 
10 | 0.97 | CC(=O)O[C@H]1C(=O)[C@@]2(C)[C@H]([C@H](OC(=O)c3ccccc3)[C@]3(O)C[C@H](OC(=O)[C@H](O)[C@@H](NC(=O)c4ccccc4)c4ccccc4)C(C)=C1C3(C)C)[C@]1(OC(C)=O)CO[C@@H]1C[C@@H]2O [PACLITAXEL] |  |  |  |  |  |  |  |  |  | 
11 |  | COc1ccc(-c2oc3c(OC)c(OC)cc(OCCCCCC(=O)NCc4ccccn4)c3c(=O)c2O)cc1 | > 40 | > 40 | > 40 | > 40 |  | > 40 |  |  |  | 
12 |  | COc1ccc(-c2oc3c(OC)c(OC)cc(OCCCCC(=O)NCCc4ccccn4)c3c(=O)c2O)cc1 | > 40 | > 40 | > 40 | > 40 |  | > 40 |  |  |  | 
13 |  | COc1ccc(-c2oc3c(OC)c(OC)cc(OCCCC(=O)N4CCN(C)CC4)c3c(=O)c2O)cc1 | > 40 | > 40 | > 40 | > 40 |  | > 40 |  |  |  | 
14 |  | CCCCCN(C)C(=O)CCCCCOc1cc(OC)c(OC)c2oc(-c3ccc(OC)cc3)c(O)c(=O)c12 | > 40 | 19.4 | 17.2 | 34.9 | 200 | 22.5 |  |  |  | 
15 |  | COc1ccc(-c2oc3c(OC)c(OC)cc(OCCN4CCCCC4)c3c(=O)c2O)cc1 | 9.96 | 4.56 | 10.3 | 11.9 | 100 | 6.55 |  |  |  | 
16 | 3.4 | CCCCN(C)C(=O)CCCOc1cc(OC)c(OC)c2oc(-c3ccc(OC)cc3)c(O)c(=O)c12 | > 40 | > 40 | > 40 | > 40 |  | > 40 |  |  |  | 
17 |  | CCN(CC)CCOc1cc(OC)c(OC)c2oc(-c3ccc(OC)cc3)c(O)c(=O)c12 | 12.8 | 7.81 | 13.8 | 25.1 | 200 | 11.3 |  |  |  | 
18 |  | COc1ccc(-c2oc3c(OC)c(OC)cc(OCCCC(=O)NCCc4ccccn4)c3c(=O)c2O)cc1 | > 40 | > 40 | > 40 | > 40 |  | > 40 |  |  |  | 
19 | 25.1 | COc1ccc(-c2oc3c(OC)c(OC)cc(OC(C)CN(C)C)c3c(=O)c2O)cc1 (stereo unspecified) | 5.41 | 2.56 | 6.12 | 7.2 | 100 | 4.38 | Tde | Tde | Tde | Active
